Reference: patent US8497269B2, “Phthalazine compounds as p38 map kinase modulators and methods of use thereof” (Amgen Inc., priority 2008, dated 2013)

Legend:
[1] = molecular target: human p38α (Homo sapiens, UniProt Q16539); test: Purified and activated recombinant human p38α assay (HTRF); assay type: biochemical; conditions: 1 nM p38α, 50 μM ATP, 100 nM GST-ATF2-Avitag, 1 hour at RT, read-out: p38a IC50 IC50
Method: Purified and Activated Recombinant Human p38α Assay
Kinase Reaction Buffer: Kinase reaction buffer for p38α HTRF assays consists of 50 mM Tris-pH 7.5, 5 mM MgCl2, 0.1 mg/mL BSA, 100 μM Na3VO4 and 0.5 mM DTT.
HTRF Detection Buffer: HTRF detection buffer contains 100 mM HEPES-pH 7.5, 100 mM NaCl, 0.1% BSA, 0.05% Tween-20, and 10 mM EDTA.
Serial Dilution of Compounds: Compounds were dissolved in 100% DMSO and serially diluted (3 fold, 10 point) in a polypropylene 96-well microtiter plate (drug plate). The final starting concentration of compounds in the p38α enzymatic assays was 1 μM. Columns 6 and 12 (HI controls and LO controls respectively) in the drug plate were reserved as controls and contained only DMSO. Kinase Reaction: The p38α kinase reactions were carried out in a polypropylene 96-well black round bottom assay plate in total volume of 30 μL kinase reaction buffer. Appropriate concentration of purified and activated enzyme (recombinant human) was mixed with indicated concentration of ATP and 100 nM GST-ATF2-Avitag, in the presence or absence (HI control) of Compound. See table below for actual concentrations. In the absence of substrate, the background was measured as LO control. The reaction was allowed to incubate for 1 hour at RT. Assay Reagent Concentrations: The final reagent concentrations were 1 nM p38α and 50 μM ATP. […] After 60 minutes incubation at room temperature, the assay plate was read in a Discovery Plate Reader. The wells were excited with coherent 320 nm light and the ratio of delayed ([…] post excitation) emissions at […] (native europium fluorescence) and 665 nm (europium fluorescence transferred to allophycocyanin—an index of substrate phosphorylation) was determined (Park et al, 1999). Data Analysis: The proportion of substrate phosphorylated in the kinase reaction in the presence of compound compared with that phosphorylated in the presence of DMSO vehicle alone (HI control) was calculated using the formula: % control (POC)=(compound−average LO)/(average HI−average LO)*100. Data (consisting of POC and inhibitor concentration in μM) was fitted to a 4-parameter equation (y=A+((B−A)/(1+((x/C)^D))), where A is the minimum y (POC) value, B is the maximum y (POC), C is the x (compound concentration) at the point of inflection and D is the slope factor, using a Levenburg-Marquardt non-linear regression algorithm.
The inhibition constant (Ki) of the inhibitor was estimated from the IC50 (compound concentration at the point of inflection C) using the Cheng-Prussof equation: Ki=IC50/(1+S/Km), where S is the ATP substrate concentration, and Km is the Michaelis constant for ATP as determined experimentally. All results were expressed as the mean±the standard error of the mean. Data acquisition and non-linear regression algorithms were performed using Activity Base v5.2 and XL-fit software v4.1 respectively. All data was archived using Activity Base v5.2 software.

[2] = system: TNF-α induced IL-8 production in human whole blood; test: Inhibition of TNF-α induced IL-8 in 50% human whole blood; assay type: cell-based; conditions: 1 nM TNF-α, secreted IL-8, 16-18 hours, read-out: WB TNF/IL8 IC50
Method: Inhibition of TNF-α Induced IL-8 in 50% Human Whole Blood
Test compounds were evaluated in vitro for the ability to inhibit the production of secreted IL-8 by whole blood activated with TNF-α. Fresh human whole blood was obtained from healthy, non-medicated volunteers in sodium heparin tubes.
Compound Dilution—Assay Procedure
Test compounds are serially diluted 1:3 in DMSO and then diluted 1:250 into R10 (RPMI 1640, 10% human serum AB, 1× pen/strep/glutamine) to the 4× working concentration to be used in the assay. 100 ul heparinized whole blood is plated into wells of 96 well flat bottom plates. 50 ul of either 4× compound or DMSO control (Final DMSO concentration is 0.1%) are added to the appropriate wells. Plates are incubated for 1 hour at 37 degrees Celsius. 50 ul of 4×TNF-α (4 nM TNF-α, for a final concentration of 1 nM) or control (media alone) is added to the appropriate wells (Total volume=200 ul). Plates are incubated overnight (16-18 hours). 100 ul of supernatant is collected and stored in 96-well round bottom polypropylene plates at −80 degrees Celsius or assayed immediately for IL-8.
Cytokines are measured on antibody (Ab) sandwich ECL based 96-well detection plates. 20 ul of supernatant are added to plate and plate is sealed and shaken at RT for 1 hour. 130 ul of detection Ab cocktail is added and plates are sealed and shaken for 1 hour in the dark at RT. Plates are read on MSD Sector HTS instrument. Data are analyzed and IC50 values generated using Activity Base and Xl-fit programs.

human p38α, sequence (Q16539 whole entry): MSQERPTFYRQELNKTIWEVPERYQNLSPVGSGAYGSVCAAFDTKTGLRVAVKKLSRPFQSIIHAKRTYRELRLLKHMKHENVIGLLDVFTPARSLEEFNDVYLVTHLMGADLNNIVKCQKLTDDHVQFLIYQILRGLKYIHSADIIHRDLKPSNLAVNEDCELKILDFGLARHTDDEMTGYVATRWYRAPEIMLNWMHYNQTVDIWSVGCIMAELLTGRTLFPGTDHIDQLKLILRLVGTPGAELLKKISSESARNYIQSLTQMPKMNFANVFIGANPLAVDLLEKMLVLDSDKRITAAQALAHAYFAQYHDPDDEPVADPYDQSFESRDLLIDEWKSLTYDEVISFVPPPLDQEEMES

Compound | IC50 [1] | IC50 [2]
Fc1ccc(Nc2ccc3c(-c4ccccc4Cl)nncc3c2)cc1 [Example 31, 1-(2-chlorophenyl)-N-(4-fluorophenyl)-6-phthalazinamine] | 0.7 nM | 1.7 nM
Cc1cc(S(C)(=O)=O)c(F)cc1-c1nncc2cc(Nc3ccc(F)cc3)ccc12 [Example 24, 1-(5-fluoro-2-methyl-4-(methylsulfonyl)phenyl)-N-(4-fluorophenyl)-6-phthalazinamine] | 0.7 nM | 4.7 nM
Cc1cc(S(C)(=O)=O)ccc1-c1nncc2cc(Nc3ccc(F)cc3F)ccc12 [Example 10, N-(2,4-difluorophenyl)-1-(2-methyl-4-(methylsulfonyl)phenyl)-6-phthalazinamine] | 0.3 nM | 0.5 nM

Continued by falling IC50 [1], values first:

IC50 [1] | IC50 [2] | Compound
1 nM | 3.9 nM | CC(c1nncc2cc(Nc3ccc(F)cc3)ccc12)C(F)(F)F (centres unmarked) [Example 5, N-(4-Fluorophenyl)-1-(2,2,2-trifluoro-1-methylethyl)-6-phthalazinamine]
0.8 nM | 10.9 nM | Cc1cc(F)ccc1-c1nncc2cc(Nc3ccc(F)cn3)ccc12 [Example 22, 1-(4-fluoro-2-methylphenyl)-N-(5-fluoro-2-pyridinyl)-6-phthalazinamine]
0.2 nM | 1.5 nM | Cc1ccccc1-c1nncc2cc(Nc3ccccc3)ccc12 [Example 9, 1-(2-methylphenyl)-N-phenyl-6-phthalazinamine]
0.2 nM | 1.7 nM | Cc1ccccc1-c1nncc2cc(Nc3ccc(F)cc3F)ccc12 [Example 8, N-(2,4-difluorophenyl)-1-(2-methylphenyl)-6-phthalazinamine]
